Measurements from patent US7282215B2, “Supports for photosensitizer formulations” (The University of British Columbia, priority 2000, dated 2007).
Marks after values point to notes of the source that are not given here.

Tests used:
[1] = system: M1 rhabdomyosarcoma tumor; test: PDT tumor recurrence in tumor mouse model; type: in vivo, DBA/2 mouse
Description: Photosensitizer formulations were prepared in 10% w/v Pluronics as described in Example 4. BPD-MA was formulated in F127. B-ring compounds B-EA6 and B-B3, were prepared in P123 due to insufficient drug loading in F127. Liposomal BPD-MA formulation was Verteporfin™ and B-ring compounds were formulated in the same lipid composition. Where DMSO/plasma preparations were made, the DMSO dissolved drug was added directly to mouse plasma and the drug association with different plasma components was observed.
In these experiments the tumor model used was the DBA/2 mouse (males) inoculated intradermally with M1 rhabdomyosarcoma tumor cells (M1, ATCC. When tumors reached a diameter of 4-6 mm, the mice (n=10, unless other wise stated) were treated with photodynamic therapy (PDT). PDT involved intravenous injection of the formulated drug in 0.2 mL volume of PBS. This was followed by exposure of the tumor region to laser light (Argon pumped dye laser (5W), 690 nm, 50J/cm2) 15 min later. Animals were then monitored for tumor recurrence over a 20 day period post treatment.

[2] = Drug loading of liposomal versus 10% P123 formulations; type: physicochemical; conditions: prepared at 2 mg/ml
Description: 5 mg drug and lipids (40% EPG in DMPC) are combined in CH2Cl2 at a drug to lipid ratio of 1:10 w/w in 250 ml round bottom flask. The maximum concentration of drug in solvent is 2 mg/ml. CH2Cl2 is removed rapidly as described in Example 5. The resulting thin film is hydrated with 2.5 ml lactose solution (9.5% w/v) using hand swirling with glass beads at 40° C. Extrusion using Model 4T (Lipex Biomembranes Inc. B.C., Canada) is carried out with the thermostat set at 40° C. The multilamellar vesicles (MLVs) arising from hydration steps of the liposomal formulation were also examined under the microscope. MLVs are successively extruded 5 times through each of the 400 nm, 200 nm and 100 nm polycarbonate membranes (Nuclepore PC, Costar). Extruded samples were diluted 1:100 in PBS (pH 7.4) and the absorbance determined at 690 nm wavelength.
In this experiment liposomal and block copolymer (micellar) photosensitizer formulations of A- and B-ring compounds of EA6 and B3 were compared. Each of the photosensitizer samples was prepared at a final drug concentration of 2 mg/ml. The block copolymer P123, and the liposomal formulations were prepared as described in the Examples 5 and 6, respectively.

[3] = pH studies of copolymer formulations; type: physicochemical; conditions: acidification
Text: Counteracting the oily nature of P123 could be achieved by incorporation of copolymer that is in solid form at room temperature. The use of 1% w/w F127 with 9% w/v P123 instead of 10% P123 (w/v) produced a thin film, which was more readily hydrated. […] This necessitates hydration of the solid drug-polymer with a very mild buffer to counteract acidification which occurs upon use of sterile packed distilled water as commonly practiced in clinical settings. Behavior of poloxamers is unaffected by pH, and the use of buffers would be entirely dependent on ionizable groups present on the drug substance.

L1210 cells [4] = test: In vitro phototoxicity (MTT assay after light exposure); type: cell-based
Description: Exposure to drugs was carried out in the presence and absence of fetal calf serum (FCS) as a model to study transfer of drug to cells in vivo. […] A suspension of L1210 cells was prepared and exposed to various drug formulations (drug concentrations ranging from 0-50 ng/ml) either in the absence or presence of 10% fetal calf serum (FCS). One hour later, the drug was removed by pelleting the cells by centrifugation. The pellet was briefly washed with 1 ml DME and resuspended in 5% FCS/DME. 100 μl of the cell suspension was aliquoted into 6 wells of a 96 well plate, and the plate exposed to light at 10 J/cm^2. Viability was determined 24 h post exposure using the MTT assay (Mosmann, J. Immunol. Meth. 65:55-63, 1983).

[5] = Drug loading attainable in 10% P123 (summary); type: physicochemical
Description: In the Example section below, formulation of the following A-ring compounds: BPD-MA, A-EA6, A-B3; B-ring compounds; B-EA6, and B-B3; and other photosensitizers such as dihydroxychlorins and pyropheophorbides, with P123 illustrate the versatility of this particular block copolymer. This includes A-ring compounds such as BPD-MA where block copolymers could be used to formulate an alternative product to a concentration as high as 4 mg/ml in 10% P123, and also A-EA6 and A-B3, all of which formulate very readily. B-ring compounds have lower drug loading characteristics, but concentrations of approximately 1.8 mg/ml are typical for B-B3, and lower for B-EA6. A wide range of other compounds e.g. pyropheophorbides and various dihydroxychlorins also formulate with ease to give final formulations at 2 mg/ml in 10% P123 in non-optimized systems. Therefore both the drug loading, and stability could be improved further by adjustments to composition, pH, and/or methodology of formulation.

L1210 cells [6] = test: In vitro cellular uptake of photosensitizer formulations; type: cell-based; conditions: 3 μg/ml, DMEM 10% FBS, B-B3 in P123 copolymer, BPD-MA liposomal
Description: The protocol for setting up the cell cultures and conditions for the cellular assay essentially followed Richter et al. (Proc. SPIE, 2078: 293-304, September 1993). L1210 cells in DMEM and 10% FBS (single experiment, 3 sets) were incubated with the formulations at a concentration of 3 μg/ml and examined for uptake in the cells over time. Cells were recovered by centrifugation, the pellet briefly rinsed, and the cells lysed by freeze thawing in the presence of 2% Triton X-100®. An equal volume of methanol was added and fluorescence was read at 694 nm (λex 440 nm).

[7] = Liposomal, 1.0 mg/kg i.v., 690 nm 50J/cm2 15 min later, Day 7
[8] = Carrier Liposomal, −FCS, 1 h drug, light 10 J/cm^2, MTT 24 h

C=Cc1c(C)c2cc3nc(cc4[nH]c(cc5nc(cc1[nH]2)C1(C)C5=CC=C(C(=O)O)C1C(=O)OC)c(C)c4CCC(=O)OC)C(CCC(=O)OC)=C3C (stereo not shown) [B-B3]
Percent (%) Mice Tumor Free [1, 7]: 0^2%
Percent (%) Mice Tumor Free ([1]; Pluronic P123, 1.0 mg/kg, Day 7): 100%
Percent (%) Mice Tumor Free ([1]; Pluronic P123, 1.0 mg/kg, Day 14): 80%
Percent (%) Mice Tumor Free ([1]; Pluronic P123, 1.0 mg/kg, Day 20): 60%
Percent (%) Mice Tumor Free ([1]; Pluronic P123, 1.2 mg/kg, Day 7, n = 3): 100^3%
Percent (%) Mice Tumor Free ([1]; Pluronic P123, 1.2 mg/kg, Day 14, n = 3): 67^3%
Percent (%) Mice Tumor Free ([1]; Pluronic P123, 1.2 mg/kg, Day 20, n = 3): 67^3%
Percent (%) Mice Tumor Free ([1]; Pluronic P123, 1.25 mg/kg, Day 7): 100%
Percent (%) Mice Tumor Free ([1]; Pluronic P123, 1.25 mg/kg, Day 14): 100%
Percent (%) Mice Tumor Free ([1]; Pluronic P123, 1.25 mg/kg, Day 20): 80%
PDT efficacy in tumor model ([1]; plasma /DMSO preparation): completely ineffective
Drug loading, P123 ([2]; Pluronic P123 10% weight/volume): 1.24 mg/mL
Drug loading, Liposome ([2]; liposomal formulation): Very low
pH dependency of formulation stability [3]: detrimental to formulation stability
LD50 (L1210 cells [4]; Carrier Copolymer (P123), +FCS (10%)): 16.6* ng/ml
LD50 (L1210 cells [4]; Carrier Copolymer (P123), −FCS): 0.68* ng/ml
LD50 (L1210 cells [4]; Carrier DMSO, +FCS (10%)): 37.0 ng/mL
LD50 (L1210 cells [4]; Carrier DMSO, −FCS): 7.2 ng/mL
LD50 (L1210 cells [4]; Carrier Liposomal, +FCS (10%)): 30.0 ng/mL
LD50 (L1210 cells [4]; [8]): 3.0 ng/mL
Formulated drug concentration [5]: approximately 1.8 mg/ml
Incubation time to 50% uptake level (L1210 cells [6]): close to ‘zero’ incubation time
Incubation time to peak / saturation of uptake (L1210 cells [6]): around 20 min

C=Cc1c(C)c2cc3nc(cc4[nH]c(cc5nc(cc1[nH]2)C(C)=C5CCC(=O)O)c(CCC(=O)OC)c4C)[C@@]1(C)C3=CC=C(C(=O)OC)[C@H]1C(=O)OC [BPD-MA, benzoporphyrin derivative mono-acid-ring A, reference compound]
Percent (%) Mice Tumor Free [1, 7]: 100%
Percent (%) Mice Tumor Free ([1]; Liposomal, 1.0 mg/kg, Day 14): 100%
Percent (%) Mice Tumor Free ([1]; Liposomal, 1.0 mg/kg, Day 20): 30%
Percent (%) Mice Tumor Free ([1]; Pluronic F127, 1.0 mg/kg, Day 7): 100%
Percent (%) Mice Tumor Free ([1]; Pluronic F127, 1.0 mg/kg, Day 14): 60%
Percent (%) Mice Tumor Free ([1]; Pluronic F127, 1.0 mg/kg, Day 20): 60%
LD50 (L1210 cells [4]; Carrier Liposomal, +FCS (10%)): 38.0 ng/mL
LD50 (L1210 cells [4]; [8]): 4.0 ng/mL
Formulated drug concentration [5]: ≤ 4 mg/mL
Incubation time to 50% uptake level (L1210 cells [6]): approximately 5 min
Incubation time to peak / saturation of uptake (L1210 cells [6]): 30 min
